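All cell lines were grown in 96-well plates and treated with compound for 48 hours. The concentration for full growth arrest is given as TGI.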
Assays:
Test in all cases: NCI anticancer screen, dose series, 48 h
TK-10 renal = test system: TK-10 renal
SN12C renal = test system: SN12C renal
UO-31 renal = test system: UO-31 renal
NCI/ADR-RES ovarian = test system: NCI/ADR-RES ovarian
SNB-19 CNS = test system: SNB-19 CNS
UACC-62 melanoma = test system: UACC-62 melanoma
A549 NSCLC = test system: A549 NSCLC
K-562 leukemia = test system: K-562 leukemia
HOP-62 NSCLC = test system: HOP-62 NSCLC
SNB-75 CNS = test system: SNB-75 CNS
NCI-H226 lung = test system: NCI-H226 lung
MDA-N = test system: MDA-N
NCI-H522 lung = test system: NCI-H522 lung
SK-OV-3 ovarian = test system: SK-OV-3 ovarian
RPMI-8226 leukemia = test system: RPMI-8226 leukemia
UACC-257 melanoma = test system: UACC-257 melanoma
MDA-MB-435 = test system: MDA-MB-435

Row | Structure (SMILES) | TGI (TK-10 renal) [µM] | TGI (SN12C renal) [µM] | TGI (UO-31 renal) [µM] | TGI (NCI/ADR-RES ovarian) [µM] | TGI (SNB-19 CNS) [µM] | TGI (UACC-62 melanoma) [µM] | TGI (A549 NSCLC) [µM] | TGI (K-562 leukemia) [µM] | TGI (HOP-62 NSCLC) [µM] | TGI (SNB-75 CNS) [µM] | TGI (NCI-H226 lung) [µM] | TGI (MDA-N) [µM] | TGI (NCI-H522 lung) [µM] | TGI (SK-OV-3 ovarian) [µM] | TGI (RPMI-8226 leukemia) [µM] | TGI (UACC-257 melanoma) [µM] | TGI (MDA-MB-435) [µM]
1 | Cc1ccc(NC(=S)NNC(=O)c2cc(-c3ccccc3)nc3ccccc23)cc1 | 29.1 | 31.8 | 25.5 | 48 | 42.4 | 30.6 | 26.2 | > 100 | 27.8 | 42.3 | 39.7 | 12.7 | 39 | 30.3 | 39.2 | 33 | 10.9
2 | NC12Oc3cc(O)cc(O)c3C1(c1ccc(Cl)cc1)c1c(O)cc(O)cc1O2 (configuration not stated) | > 100 | > 100 | > 100 | > 100 | > 100 | > 100 | > 100 | > 100 | > 100 | > 100 | > 100 | > 100 | 92.9 | > 100 | > 100 | > 100 | > 100
3 | S=c1[nH]n2c(COc3cccc(OCc4nnc5sc(=S)[nH]n45)c3)nnc2s1 | > 100 | > 100 | > 100 | > 100 | > 100 | > 100 | > 100 | > 100 | > 100 | > 100 | > 100 | > 100 | > 100 | > 100 | > 100 | > 100 | > 100
4 | CC(/C=N\NC(=S)N1CCCCC1)=N/NC(=S)N1CCCCC1 | 11.8 | 10.8 | 7.19 | 6.9 | 35.7 | 5.94 | 18.5 | > 100 | 11 | 8.08 | 2.6 | 12.1 | 5.68 | 6.08 | > 100 | 15.4 | 17.5
5 | CC(C)C[C@H]1[C@@H](OCc2ccccc2)COS(=O)N1[C@H](C)c1ccccc1 (some centres not stated) | > 100 | 40.1 | > 100 | > 100 | > 100 | > 100 | > 100 | 35.9 | 67.4 | > 100 | 36 | > 100 | 30.4 | 78 | 58.4 | > 100 | > 100
6 | CC(C)(C)c1cc(C(CO)OCCOCCO)cc(C(C)(C)C)c1O (configuration not stated) | > 100 | > 100 | > 100 | > 100 | > 100 | > 100 | > 100 | > 100 | > 100 | > 100 | > 100 | > 100 | > 100 | > 100 | > 100 | > 100 | > 100
7 | CC(NNC(=O)CC(=O)N(C(=O)c1ccccc1)c1ccc(Cl)cc1)c1cc2ccccc2oc1=O (configuration not stated) | > 10 | > 10 | 0.275 | > 10 | > 10 | > 10 | > 10 | > 10 | > 10 | > 10 | > 10 | > 10 | > 10 | > 10 | > 10 | > 10 | > 10
8 | O=[N+]([O-])c1ccc(S(=O)(=O)N=Ic2ccccc2)cc1 | > 100 | > 100 | > 100 | > 100 | > 100 | > 100 | > 100 | > 100 | > 100 | > 100 | > 100 | > 100 | > 100 | > 100 | > 100 | > 100 | > 100
9 | C[C@@H]1C[C@](O)([C@@H](C)Cl)C(=O)O[C@@H]2CCN3CC=C(COC(=O)[C@]1(C)O)[C@H]23 | > 100 | – | > 10 | > 100 | > 10 | > 100 | > 100 | > 100 | > 100 | > 100 | > 100 | > 100 | > 100 | > 100 | > 100 | > 100 | > 100
10 | N#C/C(N)=C(\C#N)NC=NCc1ccccc1 | > 100 | > 100 | > 100 | > 100 | > 100 | > 100 | > 100 | > 100 | > 100 | > 100 | > 100 | > 100 | > 100 | > 100 | > 100 | > 100 | > 100
11 | O=C(CCc1cc(O)cc(O)c1)NCCc1cc(O)cc(O)c1 | > 100 | > 100 | > 100 | > 100 | > 100 | > 100 | > 100 | > 100 | > 100 | > 100 | > 100 | > 100 | > 100 | > 100 | > 100 | > 100 | > 100
12 | CC(=O)Nc1ccc(-c2nc3cc(Cl)ccc3o2)cc1 | > 50 | > 50 | > 50 | > 50 | > 50 | > 50 | > 50 | > 50 | > 50 | > 50 | > 50 | > 50 | > 50 | > 50 | > 50 | > 50 | > 50
13 | CCc1nc2ccc(N=NN(C)C)cc2[nH]1 | > 100 | > 100 | > 100 | > 100 | > 100 | > 100 | > 100 | > 100 | > 100 | > 100 | > 100 | > 100 | > 100 | – | > 100 | > 100 | > 100
14 | Cc1ccc(-c2c3c(n(C4OC(CO)C(O)C(O)C4O)c(=S)c2C#N)CC(C)(C)CC3=O)cc1 (configuration not stated) | > 100 | > 100 | > 100 | > 100 | > 100 | > 100 | > 100 | > 100 | > 100 | > 100 | > 100 | > 100 | > 100 | – | > 100 | > 100 | > 100
15 | Cc1cc(C)nc(NS(=O)(=O)c2ccc(NNC(=O)c3cccc4c(=O)c5ccccc5[nH]c34)cc2)n1 | > 100 | > 100 | > 100 | > 100 | > 100 | > 100 | > 100 | > 100 | > 100 | 77.7 | > 100 | > 100 | > 100 | > 100 | > 100 | > 100 | > 100
16 | COC(=O)C1(OC(=O)Sc2ccccc2)CCN(C)CC1 | > 75.6 | 21.3 | 20.8 | > 48.4 | > 100 | > 64.7 | > 100 | 61.1 | > 66.6 | 40.1 | 35.7 | 49.4 | 35.1 | > 69.1 | 35 | 56.6 | 36.3
17 | O=[N+]([O-])c1cc2c(c3nonc13)OCCCCO2 | 93.7 | 16.1 | 19.7 | 62.6 | 34.6 | 21.5 | 33.5 | 17.3 | 16.2 | 22.7 | 28.2 | 16.4 | 17.4 | 65 | 16.3 | 28.9 | 17.9
18 | Cn1c(=O)c2c(no[n+]2[O-])c2ccccc21 | 56.5 | 59.8 | 55 | 47.3 | 84.2 | 31.8 | > 100 | > 100 | 35.9 | 35.9 | 40.4 | 87.2 | 27.8 | 77 | 62 | 33.2 | 68.5
19 | O=C1C[C@H]2[C@@H](O1)[C@@H](O)CN1C(=O)c3ccccc3[C@H]21 | > 100 | > 100 | > 100 | > 100 | > 100 | > 100 | > 100 | > 100 | > 100 | > 100 | > 100 | > 100 | > 100 | > 100 | > 100 | > 100 | > 100
20 | Cc1c(O)c(C)c2c(C)cn(C(=O)C(C)(C)C)c2c1C | 36.4 | 31.8 | 79.6 | > 100 | 65.5 | 28.5 | 64.7 | 98.2 | 31.7 | 34.1 | 33.5 | 38.8 | 56.2 | 42.8 | 84.5 | – | 30.3
21 | CCOC(=O)c1ccc(C(=O)/C(C#N)=C2\CCCN2C)[nH]1 | > 100 | > 100 | > 100 | > 100 | > 100 | > 100 | > 100 | > 100 | > 100 | > 100 | > 100 | > 100 | > 100 | – | > 100 | > 100 | > 100
22 | CCCCCC(/C=C/C1CCC(=O)C1CC#C[Si](C)(C)C)OCc1ccccc1 (configuration not stated) | 60.5 | 39 | 34.3 | 41.8 | > 84.8 | 30.6 | 70.7 | 41.8 | 41.5 | 41.3 | > 94.7 | 42.6 | 28.6 | > 100 | 44.3 | 39.6 | 41.7
23 | CCOC(=O)C1=C(N)Oc2ccc(Br)cc2C1C(C#N)C(=O)OCC (configuration not stated) | 36.2 | > 100 | 35.8 | 41 | 68.1 | 83.5 | 70.5 | > 100 | > 100 | > 100 | 35.3 | 54.9 | 34.6 | 47.1 | 41.6 | 61.7 | 37.9
24 | CCCCn1c(C)c2c(c1C)C(=O)N(CC(O)CN1CCc3ccccc3C1)C2=O (configuration not stated) | > 100 | > 100 | > 100 | > 100 | > 100 | > 100 | > 100 | > 100 | > 100 | > 100 | > 100 | > 100 | > 100 | > 100 | > 100 | > 100 | > 100
25 | O=C(O)c1cccnc1 | > 100 | > 100 | > 100 | > 100 | > 100 | – | > 100 | > 100 | > 100 | > 100 | > 100 | > 100 | > 100 | – | > 100 | > 100 | > 100
26 | C[C@H]1C2Cc3cc(N)ccc3[C@@]1(C)CCN2CCc1ccccc1 | > 100 | > 100 | > 100 | > 100 | > 100 | > 100 | > 100 | > 100 | > 100 | > 100 | > 100 | > 100 | 31.5 | > 100 | > 100 | > 100 | > 100
27 | Cc1ccc(-c2cc(-c3ccc(Cl)cc3)nc(/N=C3\C(=O)N(CN4CCOCC4)c4ccc(Cl)cc43)n2)cc1 | 72.2 | 59.1 | 60.3 | 61.3 | > 100 | 93.2 | > 100 | 90.9 | 51.8 | 97.1 | > 100 | > 100 | 36.7 | 84.4 | > 100 | > 100 | 65.9
